# Legend:
# [1] = molecular target: BRD4-BD2 (Homo sapiens (Human), UniProt O60885); test: BRD4 AlphaScreen assay (BRD4-BD2); format: binding; conditions: biotin-labeled tetra-acetylated histone H4 peptide
# Experimental: (§1) BRD4-BD1 and BRD4-BD2 assays were conducted in white 384-well polystyrene plate in a final volume of 40 μL for BD1 and 60 μL for BD2. Inhibitors were first serially diluted in DMSO and added to the plate wells before the addition of other reaction components. The final concentration of DMSO in the assay was 1.25% (BD1) and 0.83% (BD2). The assays were carried out at room temperature in the assay buffer (50 mM Tris-HCl, pH 7.5, 0.01% Tween-20, 0.01% BSA, 5 mM DTT), containing 50 nM Biotin-labeled tetra-acetylated histone H4 peptide (H4Ac4) and BRD4-BD1 or BRD4-BD2 protein at concentration less than 1 nM. The incubation for 75 min. was followed by the addition of 20 μL of assay buffer supplemented with Streptavidin donor beads (PerkinElmer 6760002) and GSH Acceptor beads (PerkinElmer-AL109C) at final concentration 2-4 μg/mL under reduced light. After plate sealing, the plate was incubated in the dark at room temperature for 75 min. before reading on a PHERAstar FS plate reader (BMG Labtech). IC50 determination was performed by fitting the curve of percent control activity versus the log of the inhibitor concentration using the GraphPad Prism 5.0 software.
# [2] = molecular target: BRD4-BD1 (Homo sapiens (Human), UniProt O60885); test: BRD4 AlphaScreen assay (BRD4-BD1); format: binding; conditions: biotin-labeled tetra-acetylated histone H4 peptide
# Experimental: as §1
Structure (SMILES),IC50 [1] [µM],IC50 [2] [µM]
"CC(C)C1Oc2c(-c3cn(C)c(=O)c4[nH]ccc34)cc(S(C)(=O)=O)cc2N(CC2CC2)C1=O (stereo not drawn) [Example 53, 4-(cyclopropylmethyl)-2-isopropyl-8-(6-methyl-7-oxo-6,7-dihydro-1H-pyrrolo[2,3-c]pyridin-4-yl)-6-(methyslulfonyl)-2H-1,4-benzoxazin-3(4H)-one]",≤ 0.1,≤ 0.1
"CN1C(=O)C(C)(C)Oc2c(-c3cn(C)c(=O)c4[nH]ccc34)cc(S(=O)(=O)N3CCCCC3)cc21 [Example 73, 2,2,4-trimethyl-8-(6-methyl-7-oxo-6,7-dihydro-1H-pyrrolo[2,3-c]pyridin-4-yl)-6-(piperidin-1-ylsulfonyl)-2H-1,4-benzoxazin-3(4H)-one]",≤ 0.1,≤ 0.1
"CN1C(=O)C2(CC2)Oc2c(-c3cn(C)c(=O)c4[nH]ncc34)cc(S(C)(=O)=O)cc21 [Example 66, 4-methyl-8-(6-methyl-7-oxo-6,7-dihydro-1H-pyrazolo[3,4-c]pyridin-4-yl)-6-(methylsulfonyl)spiro[1,4-benzoxazine-2,1′-cyclopropan]-3(4H)-one]",≤ 0.1,≤ 0.1
"CC(C)[C@H]1Nc2c(cc(S(C)(=O)=O)cc2-c2cn(C)c(=O)c3[nH]ccc23)NC1=O [Example 61, (3R)-3-isopropyl-5-(6-methyl-7-oxo-6,7-dihydro-1H-pyrrolo[2,3-c]pyridin-4-yl)-7-(methylsulfonyl)-3,4-dihydroquinoxalin-2(1H)-one]",≤ 0.1,≤ 0.1
"CC(C)C1Oc2c(-c3cn(C)c(=O)c4[nH]ccc34)cc(S(=O)(=O)C(C)C)cc2N(C)C1=O (stereo not drawn) [Example 56, 2-isopropyl-6-(isopropylsulfonyl)-4-methyl-8-(6-methyl-7-oxo-6,7-dihydro-1H-pyrrolo[2,3-c]pyridin-4-yl)-2H-1,4-benzoxazin-3(4H)-one]",≤ 0.1,≤ 0.1
"CCC1Oc2c(-c3cn(C)c(=O)c4[nH]ccc34)cccc2N(C)C1=O (stereo not drawn) [Example 8, 2-ethyl-4-methyl-8-(6-methyl-7-oxo-6,7-dihydro-1H-pyrrolo[2,3-c]pyridin-4-yl)-2H-1,4-benzoxazin-3(4H)-one]",≤ 0.1,0.1 to 1
"Cn1cc(-c2cc(S(C)(=O)=O)cc3c2OC2(CC2)C(=O)N3)c2cn[nH]c2c1=O [Example 65, 8-(6-methyl-7-oxo-6,7-dihydro-1H-pyrazolo[3,4-c]pyridin-4-yl)-6-(methylsulfonyl)spiro[1,4-benzoxazine-2,1′-cyclopropan]-3(4H)-one]",≤ 0.1,≤ 0.1
"CC(C)C1Oc2c(-c3cn(C)c(=O)c4[nH]ccc34)cc(S(C)(=O)=O)cc2N(C)C1=O (single isomer, unassigned) [Example 47A, 2-isopropyl-4-methyl-8-(6-methyl-7-oxo-6,7-dihydro-1H-pyrrolo[2,3-c]pyridin-4-yl)-6-(methylsulfonyl)-2H-1,4-benzoxazin-3(4H)-one]",≤ 0.1,≤ 0.1
"COc1cc2c(c(-c3cn(C)c(=O)c4[nH]ncc34)c1)OC(C)(C)C(=O)N2 [Example 29, 6-methoxy-2,2-dimethyl-8-(6-methyl-7-oxo-6,7-dihydro-1H-pyrazolo[3,4-c]pyridin-4-yl)-2H-1,4-benzoxazin-3(4H)-one]",≤ 0.1,≤ 0.1
"CNC(=O)CN1C(=O)C(C(C)C)Oc2c(-c3cn(C)c(=O)c4[nH]ccc34)cc(OC)cc21 (stereo not drawn) [Example 12, 2-[2-isopropyl-6-methoxy-8-(6-methyl-7-oxo-6,7-dihydro-1H-pyrrolo[2,3-c]pyridin-4-yl)-3-oxo-2,3-dihydro-4H-1,4-benzoxazin-4-yl]-N-methylacetamide]",≤ 0.1,0.1 to 1
"COc1cc2c(c(-c3cn(C)c(=O)c4[nH]ncc34)c1)OC(C1CCCC1)C(=O)N2 (single isomer, unassigned) [Example 42B, 2-cyclopentyl-6-methoxy-8-(6-methyl-7-oxo-6,7-dihydro-1H-pyrazolo[3,4-c]pyridin-4-yl)-2H-1,4-benzoxazin-3(4H)-one]",≤ 0.1,–

# More lines, now with the values ahead:
IC50 [1] [µM],IC50 [2] [µM],Structure (SMILES)
≤ 0.1,≤ 0.1,"Cn1cc(-c2cc(S(=O)(=O)N3CCCCC3)cc3c2OC(C)(C)C(=O)N3)c2cc[nH]c2c1=O [Example 72, 2,2-dimethyl-8-(6-methyl-7-oxo-6,7-dihydro-1H-pyrrolo[2,3-c]pyridin-4-yl)-6-(piperidin-1-ylsulfonyl)-2H-1,4-benzoxazin-3(4H)-one]"
≤ 0.1,≤ 0.1,"COc1cc2c(c(-c3cn(C)c(=O)c4[nH]ccc34)c1)OC(C(C)C)C(=O)N2 (single isomer, unassigned) [Example 9B, 2-isopropyl-6-methoxy-8-(6-methyl-7-oxo-6,7-dihydro-1H-pyrrolo[2,3-c]pyridin-4-yl)-2H-1,4-benzoxazin-3(4H)-one]"
≤ 0.1,≤ 0.1,"COc1cc2c(c(-c3cn(C)c(=O)c4[nH]ccc34)c1)OC(C1CCCC1)C(=O)N2 (single isomer, unassigned) [Example 35A, 2-Cyclopentyl-6-methoxy-8-(6-methyl-7-oxo-6,7-dihydro-1H-pyrrolo[2,3-c]pyridin-4-yl)-2H-1,4-benzoxazin-3(4H)-one]"
≤ 0.1,≤ 0.1,"CNS(=O)(=O)c1cc2c(c(-c3cn(C)c(=O)c4[nH]ccc34)c1)OC(C(C)C)C(=O)N2 (stereo not drawn) [Example 68, 2-isopropyl-N-methyl-8-(6-methyl-7-oxo-6,7-dihydro-1H-pyrrolo[2,3-c]pyridin-4-yl)-3-oxo-3,4-dihydro-2H-1,4-benzoxazine-6-sulfonamide]"
≤ 0.1,≤ 0.1,"CC(C)C1Oc2c(cc(C(=O)N(C)C)cc2-c2cn(C)c(=O)c3[nH]ccc23)NC1=O (stereo not drawn) [Example 34, 2-isopropyl-N,N-dimethyl-8-(6-methyl-7-oxo-6,7-dihydro-1H-pyrrolo[2,3-c]pyridin-4-yl)-3-oxo-3,4-dihydro-2H-1,4-benzoxazine-6-carboxamide]"
≤ 0.1,≤ 0.1,"CCS(=O)(=O)c1cc2c(c(-c3cn(C)c(=O)c4[nH]ccc34)c1)OC(C(C)C)C(=O)N2 (stereo not drawn) [Example 51, 6-(ethylsulfonyl)-2-isopropyl-8-(6-methyl-7-oxo-6,7-dihydro-1H-pyrrolo[2,3-c]pyridin-4-yl)-2H-1,4-benzoxazin-3(4H)-one]"
≤ 0.1,0.1 to 1,"COc1cc(-c2cn(C)c(=O)c3[nH]ccc23)c2c(c1)N(C)CC(C(C)C)O2 (stereo not drawn) [Example 22, 4-(2-isopropyl-6-methoxy-4-methyl-3,4-dihydro-2H-1,4-benzoxazin-8-yl)-6-methyl-1,6-dihydro-7H-pyrrolo[2,3-c]pyridin-7-one]"
≤ 0.1,≤ 0.1,"COc1cc2c(c(-c3cn(C)c(=O)c4[nH]ccc34)c1)OC(C1CCCC1)C(=O)N2 (single isomer, unassigned) [Example 35B, 2-Cyclopentyl-6-methoxy-8-(6-methyl-7-oxo-6,7-dihydro-1H-pyrrolo[2,3-c]pyridin-4-yl)-2H-1,4-benzoxazin-3(4H)-one]"
–,≤ 0.1,"COc1cc2c(c(-c3cn(C)c(=O)c4[nH]ccc34)c1)OC(C(C)C)C(=O)N2 (stereo not drawn) [Example 9, 2-isopropyl-6-methoxy-8-(6-methyl-7-oxo-6,7-dihydro-1H-pyrrolo[2,3-c]pyridin-4-yl)-2H-1,4-benzoxazin-3(4H)-one]"
–,≤ 0.1,"COc1cc2c(c(-c3cn(C)c(=O)c4[nH]ccc34)c1)OC(C1CCCC1)C(=O)N2 (stereo not drawn) [Example 35, 2-cyclopentyl-6-methoxy-8-(6-methyl-7-oxo-6,7-dihydro-1H-pyrrolo[2,3-c]pyridin-4-yl)-2H-1,4-benzoxazin-3(4H)-one]"

# Reference: patent US9957268B2, “1H-pyrrolo[2,3,c]pyridin-7(6H)-ones and pyrazolo[3,4-c]pyridin-7(6H)-ones as inhibitors of BET proteins” (Incyte Corporation, priority 2014, dated 2018)
